{"source": "patent US8524659B2", "about": "“RNA virus-derived peptides with modified side chains” (National Taiwan University, priority 2011, dated 2013)", "key": {"HIV TAR RNA [1]": {"molecular_target": "HIV TAR RNA", "experiment": "Fluorescence anisotropy binding of Tat peptides to fluorescein-labeled TAR RNA", "description": "The binding affinity of XaaTat peptides (Xaa=Agh, Arg and Agb) for TAR RNA was measured by fluorescence anisotropy using a Varian Cary Eclipse fluorescence spectrophotometer. The anisotropy (r) was calculated using the following equation: […]\nwhere Ivv, Ivh, Ihh, Ihv are the fluorescence intensities with the excitation polarizer and emission polarizer is oriented perpendicular (Ivh and Ihv) and parallel (Ivv and Ihh) to the direction of the polarized excitation. The fluorescein-labeled TAR RNA (F-TAR-RNA) was excited at 490 nm and the polarized emissions were monitored at 512 nm. The slits were set at 10 nm for both excitation and emission. The integration time was 20 seconds. All data were measured in a Sub-Micro (Starna Cell, Inc.) with a starting volume of 160 μL. Each addition (1 μL) of XaaTat was equilibrated for two minutes before the fluorescence signal was recorded. All experiments were performed at room temperature in TKT buffer (TKT: 50 mM Tris-HCl, pH 7.4, 20 mM KCl and 0.02% Tween20). The initial concentration of F-TAR-RNA was 25 nM. The TKT solution and peptide stock solution were both equilibrated at room temperature more than 20 minutes before the experiment. The experiment was repeated three times independently. For every single point, three measurements were performed and the average value was used for deriving the apparent (apparent KD). The apparent for the peptide-RNA complex was derived by fitting the data assuming a 1:1 peptide-RNA stoichiometry. The fitting was performed using Kaleidagraph 3.52. (Synergy Software, CA)."}, "Jurkat cells": {"system": "Jurkat cells", "experiment": "MTT assay for determining cell survival", "type": "cell-based", "settings": "7 μM and 30 μM peptide, 4 hours, 37° C., FIG. 4", "description": "The cells were grown to appropriate cell density (roughly 2×10^6 cells/mL) and transferred into new media one day before performing the experiment. For each assay, 8×10^5 cells as determined by a hemocytometer were added into an eppendorf. The cells were centrifuged at 2200 rpm for 5 minutes. The supernatant was removed by suction. Then 200 μL of 7 μM or 30 μM XaaTat peptide was added. The cells were incubated for 4 hours at 37° C. and then centrifuged at 2200 rpm for 5 minutes. The cells were washed with RPMI medium twice, and then 200 μL of 0.5 mg/mL MTT in serum free RPMI buffer was added and incubated at 37° C. for 3.5 hours. The cells were then centrifuged at 4000 rpm for 5 minutes. The supernatant was then transferred to two wells (100 μL each) of a 96-well plate. Then 400 μL DMSO was added to the cells in the assaying eppendorf. The eppendorf was then vortexed for 5 minutes to solubilize the MTT purple crystals, and centrifuged at 2200 rpm for 5 minutes. Then the supernatant was transferred to 4 wells (100 μL each) of the 96-well plate for analysis. The absorbance at 570 was determined for each well using a microplate reader with the absorbance at 655 nm used for background correction. A standard curve was generated using different number of cells (8×10^5, 4×10^5 and 2×10^5). The absorbance for each sample for each peptide at each concentration was then correlated to the number of live cells based on the standard curve."}, "HIV TAR RNA [2]": {"molecular_target": "HIV TAR RNA", "experiment": "Gel shift assay (EMSA) with fluorescein-labeled TAR RNA in the presence of poly(dI-dC)", "type": "binding", "description": "The fluorescein-labeled TAR RNA (F-TAR-RNA) was purchased from Sigma. F-TAR-RNA was dissolved in diethyl pyrocarbonate treated H2O to give a 50 μM solution. Binding assays were performed at room temperature. Peptide and RNA were incubated in pH 7.4 buffer (10 μL) containing Tris-HCl (50 mM), KCl (50 mM), poly-dIdC (10 μg/mL), 2% glycerol, and Triton X-100 (0.05%). The F-TAR-RNA concentration was 100 nM. The samples were analyzed by loading into 12% native polyacrylamide gels in […] and electrophoresis was performed with 140 V at room temperature. Dried gels were scanned by the Typhoon TRIO+ Variable Mode Imager. Bands corresponding to the free and bound RNA were quantified using ImageQuant software. The apparent dissociation constants were globally derived from the quantified data assuming a 1:1 binding stoichiometry."}}}
{"smiles": "CC(=O)N[C@@H](Cc1ccc(O)cc1)C(=O)NCC(=O)N[C@@H](CCCNC(=N)N)C(=O)N[C@@H](CCCCN)C(=O)N[C@@H](CCCCN)C(=O)N[C@@H](CCCNC(=N)N)C(=O)N[C@@H](CCCNC(=N)N)C(=O)N[C@@H](CCC(N)=O)C(=O)N[C@@H](CCCNC(=N)N)C(=O)N[C@@H](CCCNC(=N)N)C(=O)N[C@@H](CCCNC(=N)N)C(N)=O", "note": "[ArgTat, Ac-Tyr-Gly-Arg-Lys-Lys-Arg-Arg-Gln-Arg-Arg-Arg-NH2, reference compound]", "values": [{"measurement": "Kd", "setting": "HIV TAR RNA [1]; Table 2, read-out: KD, binding affinity of Tat-peptide and TAR RNA by fluorescence anisotropy assay", "result": "25 ± 3", "unit": "nM"}, {"measurement": "Kd", "setting": "HIV TAR RNA [1]; fluorescence anisotropy, 25 nM fluorescein-labeled HIV TAR RNA, absence of poly(dI-dC), 1:1 stoichiometry, read-out: Apparent KD HIV TAR RNA", "result": "25 ± 3", "unit": "nM"}, {"measurement": "Cytotoxicity (cell survival)", "setting": "Jurkat cells", "result": "minimal cytotoxicity"}, {"measurement": "Kd", "setting": "HIV TAR RNA [2]; EMSA, 100 nM fluorescein-labeled HIV TAR RNA, 10 μg/mL poly(dI-dC), 1:1 stoichiometry, read-out: Apparent KD HIV TAR RNA with poly(dI-dC)", "result": "67 ± 19", "unit": "nM"}, {"measurement": "Effect of poly(dI-dC) on binding affinity for TAR RNA (specificity)", "setting": "HIV TAR RNA [2]; comparison of absence and presence of poly(dI-dC), Table 1", "result": "somewhat affected"}, {"measurement": "Kd", "setting": "HIV TAR RNA [2]; in the presence of 10 μg/mL poly(dI-dC), FIG. 9, read-out: KD of peptide and TAR-RNA by gel shift assay", "result": "67 ± 19", "unit": "nM"}, {"measurement": "Kd", "setting": "HIV TAR RNA [2]; in the presence of poly(dI-dC) at 25° C., Table 3, read-out: KD, dissociation constant of Tat-peptide and TAR RNA by gel shift assay", "result": "67 ± 19", "unit": "nM"}]}
{"smiles": "CC(=O)N[C@@H](Cc1ccc(O)cc1)C(=O)NCC(=O)N[C@@H](CCNC(=N)N)C(=O)N[C@@H](CCCCN)C(=O)N[C@@H](CCCCN)C(=O)N[C@@H](CCNC(=N)N)C(=O)N[C@@H](CCNC(=N)N)C(=O)N[C@@H](CCC(N)=O)C(=O)N[C@@H](CCNC(=N)N)C(=O)N[C@@H](CCNC(=N)N)C(=O)N[C@@H](CCNC(=N)N)C(N)=O", "note": "[AgbTat, Ac-Tyr-Gly-Agb-Lys-Lys-Agb-Agb-Gln-Agb-Agb-Agb-NH2]", "values": [{"measurement": "Cytotoxicity (cell survival)", "setting": "Jurkat cells", "result": "minimal cytotoxicity"}]}
